These results are taken from patent publication US20240197596A1, “COMPOUNDS USEFUL AS HAIR DYES” (National University of Singapore, priority 2021, published 2024).

Values after ≈ are worked out from the molar mass of the structure shown. Values joined by “and” are separate entries in the source; they are usually repeats but may differ in a detail not shown here. Identical values can stand only once. “Also recorded” adds a separate entry of the source.

The term solubility denotes how much of the substance goes into solution per volume. Higher therefore signals much dissolved substance.

The nature of data set [1]: Thermodynamic solubility assay (modified shake flask, LC-MS/MS). The settings on record: Milli-Q water, pH=7, 25° C., 24 h, 3 separate determinations; for solubility at 24 h: 25 °C, pH 7, water, thermodynamic from solid. Summed up: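 Excess compound was shaken in water (pH 7) at 300 rpm and 25° C for 24 h. The supernatant was cleared by two centrifugations at 23,000 g for 20 min. Concentration was quantified by LC-MS/MS (ESI+) against a four-point standard curve.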

The nature of data set [2]: Skin permeation study, Franz diffusion cell. Type of data set: in vitro ADME, porcine. The settings on record: for Cumulative amount at 8th hour: 1% w/v in deionized water; for Cumulative amount at 8th hour / Permeated through skin into receptor / Recovered in donor compartment / Recovered in skin / Recovered in skin outside diffusion area / Recovered in skin swabs / Recovered on parafilm and in washes / Cumulative amount comparison of PPD vs derivatives (times less than PPD): 8 h; for Permeated through skin into receptor / Recovered in donor compartment / Recovered in skin / Recovered in skin outside diffusion area / Recovered in skin swabs / Recovered on parafilm and in washes: mass balance; for recovery at 8 h, 1 % w/v: pig, end of 8 h, read-out: Total recovery (mean percentage parent compound recovery). As to the method:
In each Franz cell, a piece of pig ear skin prepared to a thickness of […] was clamped securely. 5 mL of PBS solution was added to the receiver compartment which was purged of air bubbles to ensure maximal contact of the skin piece with the solution. Donor solution was prepared by dissolving N1-N13 in deionized water at 1% w/v, and 900 μL was added to the donor compartment. The study was conducted for 8 h, and aliquots of 200 μL were removed from the receiver solution and topped up with fresh PBS at each timepoint of 15-minutes intervals for the first hour and every hour after that.
For mass balance, at the end of 8 h, skin pieces and swabs of the top and bottom surface of the skin were collected and stored in ACN for N1-N13 extraction. Donor solution and receiver solution were also collected.
The aliquot samples collected were subjected to 2-step extraction using 750 μL of dichloromethane (DCM). […] The solvent was dried using the TurboVap, and then reconstituted with 198 μL of 0.1% formic acid in 50% methanol in water and spiked with 2 μL of ANP (internal standard). The processed aliquot samples and mass balance samples were then sent for analysis using LC-MS/MS. The compounds' steady state fluxes and permeability coefficients were then calculated by fitting the solution to Fick's […] of diffusion at the steady state (linear part) of each experimental cumulative amount curve.

The test system of the next data set is IL-8. As to the kind of experiment: IL-8 release assay (ELISA) in THP-1 cells. Type of data set: cell-based, human. To be noted: CV75 dose, 24 h. As for the experimental part: (§1) CV75 values (concentration showing 75% of THP-1 cell survival) were determined as per the procedure described above in section A of this method. The IL-8 and IL-1α release assay was performed as described in Toxicol In Vitro. 2003, 17(3), 311-321. A Chemokine immunosorbent assay Bio-legend ELISA Max kit was used to quantify the levels of available IL-8 and IL-1α protein. The supernatant media of untreated THP-1 cells was treated with standards, test samples N1-N13 and DMSO in 96 well plate and then was recovered after 24 h of culture. IL-8 and IL-1α was measured by ELISA in 96-well microtiter plates according to the manufacturer protocol (Biolegend, ELISA MAX™, Singapore).

The next data set has as its system IL-1α. Put plainly: IL-1α release assay (ELISA) in THP-1 cells. In kind it is cell-based, human. The settings on record: 24 h; for release of IL-1α: CV75 dose. As for the experimental part: as §1
(In general: ELISA stands for enzyme-linked immunosorbent assay.)

Regarding `COC(COc1cc(N)ccc1N)OC` [Compound N1, 2-(2,2-dimethoxyethoxy)benzene-1,4-diamine], in data set [1], the solubility at 24 h lay within 78 to 100 mg/mL (≈ 367 to 471 mM) and the Solubility is recorded as 85 + 4.0 mg/ml. Besides, in data set [2], the “Cumulative amount at 8th hour” value stood at 0.0073 μg/cm^2, the “Permeated through skin into receptor” value is <0.001 % of applied compound dose, the “Recovered in donor compartment” value is recorded as 96.7 % of applied compound dose and the Recovered in skin is reported as 0.05 % of applied compound dose. Moreover, in data set [2], the “Recovered in skin outside diffusion area” value is recorded as 0.0015 % of applied compound dose; the “Recovered in skin swabs” value is 0.04 % of applied compound dose; the “Recovered on parafilm and in washes” value is reported as 0.003 % of applied compound dose; the recovery at 8 h, 1 % w/v was determined as 96 ± 1.26%.
For the compound `C=C(C)Oc1cc(N)ccc1N` [Compound N12, 2-(prop-1-en-2-yloxy)benzene-1,4-diamine], the “release of IL-8” value in the data set on IL-8 is recorded as “slight elevation; also recorded: marginal release”. The “release of IL-1α” value in the data set on IL-1α is listed as “slight elevation; also recorded: marginal release”. The same compound showed a solubility at 24 h in data set [1] of 32 mg/mL (≈ 195 mM). Also, in data set [2], the “Cumulative amount at 8th hour” value was 0.0145 μg/cm^2 and 0.0144 μg/cm^2; the “Permeated through skin into receptor” value is given as <0.001 % of applied compound dose; the “Recovered in donor compartment” value is 96.0 % of applied compound dose; the Recovered in skin is recorded as 0.02 % of applied compound dose. In addition, in data set [2], the “Recovered in skin outside diffusion area” value is recorded as 0.0045 % of applied compound dose; the “Recovered in skin swabs” value was 0.05 % of applied compound dose; the “Recovered on parafilm and in washes” value is on record as 0.007 % of applied compound dose; the recovery at 8 h, 1 % w/v was 96.1 ± 1%.
`CC(O)COc1cc(N)ccc1N` (centres unmarked) [Compound N10, 1-(2,5-diaminophenoxy)propan-2-ol]: in data set [1], the solubility at 24 h lay in the range of 78 to 100 mg/mL (≈ 428 to 549 mM) and the Solubility is on record as 78 + 2.5 mg/ml. Also, in data set [2], the “Cumulative amount at 8th hour” value turned out to be 0.008 μg/cm^2, the “Cumulative amount comparison of PPD vs derivatives (times less than PPD)” value is listed as 633, the “Permeated through skin into receptor” value is on record as <0.001 % of applied compound dose and the “Recovered in donor compartment” value is given as 95.0 % of applied compound dose. In data set [2], the Recovered in skin is listed as 0.04 % of applied compound dose; the “Recovered in skin outside diffusion area” value is recorded as 0.003 % of applied compound dose; the “Recovered in skin swabs” value is on record as 0.05 % of applied compound dose; the “Recovered on parafilm and in washes” value is reported as 0.006 % of applied compound dose. In addition, the recovery at 8 h, 1 % w/v in data set [2] stood at 95.1 ± 1.4%.
`Nc1ccc(N)c(OCCO)c1` [Compound N9, 2-(2,5-diaminophenoxy)ethan-1-ol]: in data set [1], the solubility at 24 h lay in the range of 65 to 72 mg/mL (≈ 386 to 428 mM) and the Solubility is listed as 72 + 3.4 mg/ml. For the same compound, in data set [2], the “Cumulative amount comparison of PPD vs derivatives (times less than PPD)” value was determined as 445, the “Permeated through skin into receptor” value is given as <0.001 % of applied compound dose, the “Recovered in donor compartment” value is given as 94.5 % of applied compound dose and the Recovered in skin is on record as 0.05 % of applied compound dose. In data set [2], the “Recovered in skin outside diffusion area” value is given as 0.0022 % of applied compound dose; the “Recovered in skin swabs” value was 0.03 % of applied compound dose; the “Recovered on parafilm and in washes” value was 0.003 % of applied compound dose; the recovery at 8 h, 1 % w/v came to 94.6 ± 1.5%.
As for `CCOCOc1cc(N)ccc1N` [Compound N3, 2-(ethoxymethoxy)benzene-1,4-diamine], in data set [1], the solubility at 24 h was in the range of 65 to 72 mg/mL (≈ 357 to 395 mM) and the Solubility is listed as 65 + 3.6 mg/ml. Further, in data set [2], the “Cumulative amount at 8th hour” value is 0.0088 μg/cm^2 and 0.00875 μg/cm^2; the “Permeated through skin into receptor” value is <0.001 % of applied compound dose; the “Recovered in donor compartment” value is recorded as 97.2 % of applied compound dose; the Recovered in skin is given as 0.01 % of applied compound dose. In data set [2], the “Recovered in skin outside diffusion area” value is recorded as 0.004 % of applied compound dose; the “Recovered in skin swabs” value is listed as 0.04 % of applied compound dose; the “Recovered on parafilm and in washes” value was 0.005 % of applied compound dose; the recovery at 8 h, 1 % w/v was 97 ± 1.05%.
Regarding `N#CCOc1cc(N)ccc1N` [Compound N6, 2-(2,5-diaminophenoxy)acetonitrile], in the data set with IL-8, the “release of IL-8” value is “did not release significant amounts”. Moreover, the “release of IL-1α” value in the data set on IL-1α was “did not release significant amounts”. Besides, in data set [2], the “Cumulative amount at 8th hour” value is 0.0145 μg/cm^2, the “Permeated through skin into receptor” value is recorded as <0.001 % of applied compound dose, the “Recovered in donor compartment” value is listed as 99.1 % of applied compound dose and the Recovered in skin is 0.01 % of applied compound dose. Moreover, in data set [2], the “Recovered in skin outside diffusion area” value is on record as 0.006 % of applied compound dose; the “Recovered in skin swabs” value is on record as 0.04 % of applied compound dose; the “Recovered on parafilm and in washes” value is 0.002 % of applied compound dose.
As to `COCOc1cc(N)ccc1N` [Compound N2, 2-(methoxymethoxy)benzene-1,4-diamine], in data set [1], the solubility at 24 h was 78 to 100 mg/mL (≈ 464 to 595 mM) and the Solubility is recorded as 90 + 2.6 mg/ml. Moreover, in data set [2], the “Cumulative amount comparison of PPD vs derivatives (times less than PPD)” value came out at 453.7, the “Permeated through skin into receptor” value is <0.001 % of applied compound dose, the “Recovered in donor compartment” value is 98.2 % of applied compound dose and the Recovered in skin was 0.04 % of applied compound dose. In addition, in data set [2], the “Recovered in skin outside diffusion area” value is on record as 0.0024 % of applied compound dose; the “Recovered in skin swabs” value is on record as 0.05 % of applied compound dose; the “Recovered on parafilm and in washes” value is 0.004 % of applied compound dose; the recovery at 8 h, 1 % w/v turned out to be 98 ± 1.33%.
Take `Nc1ccc(N)c(OCC2CO2)c1` (centres unmarked) [Compound N4, 2-(oxiran-2-ylmethoxy)benzene-1,4-diamine]: in the data set with IL-1α, the “IL-1α release, times lower than PPD” value is given as 7-8 and the “release of IL-1α” value was “slight release”. For the same compound, in data set [1], the solubility at 24 h lay within 65 to 72 mg/mL (≈ 361 to 400 mM) and the Solubility is 70 + 4.6 mg/ml. In data set [2], the “Cumulative amount at 8th hour” value is recorded as 0.0104 μg/cm^2, the “Permeated through skin into receptor” value is <0.001 % of applied compound dose, the “Recovered in donor compartment” value is given as 98.9 % of applied compound dose and the Recovered in skin is 0.02 % of applied compound dose. Besides, in data set [2], the “Recovered in skin outside diffusion area” value is 0.005 % of applied compound dose; the “Recovered in skin swabs” value is 0.03 % of applied compound dose; the “Recovered on parafilm and in washes” value is 0.008 % of applied compound dose; the recovery at 8 h, 1 % w/v amounted to 99 ± 1.15%.
Regarding `COCCOCCOc1cc(N)ccc1N` [Compound N5, 2-[2-(2-methoxyethoxy)ethoxy]benzene-1,4-diamine], in the data set on IL-8, the “release of IL-8” value was “slight elevation; also recorded: marginal release”. Moreover, in the data set on IL-1α, the “release of IL-1α” value is “slight elevation; also recorded: marginal release”. Further, in data set [1], the solubility at 24 h was 78 to 100 mg/mL (≈ 345 to 442 mM) and the Solubility was 85 + 2.5 mg/ml. In data set [2], the “Cumulative amount at 8th hour” value is 0.0065 μg/cm^2 and 0.00654 μg/cm^2; the “Cumulative amount comparison of PPD vs derivatives (times less than PPD)” value was 825.0; the “Permeated through skin into receptor” value is <0.001 % of applied compound dose; the “Recovered in donor compartment” value is recorded as 95.3 % of applied compound dose. Further, in data set [2], the Recovered in skin is recorded as 0.04 % of applied compound dose; the “Recovered in skin outside diffusion area” value is given as 0.0045 % of applied compound dose; the “Recovered in skin swabs” value was 0.06 % of applied compound dose; the “Recovered on parafilm and in washes” value is on record as 0.009 % of applied compound dose. Besides, the recovery at 8 h, 1 % w/v in data set [2] was 95 ± 1.42%.
In the case of `Nc1ccc(N)c(OCOCO)c1` [Compound N8, ((2,5-diaminophenoxy)methoxy)methanol], in data set [1], the solubility at 24 h fell in the range of 78 to 100 mg/mL (≈ 423 to 543 mM) and the Solubility is recorded as 92 + 3.0 mg/ml. In data set [2], the “Cumulative amount at 8th hour” value amounted to 0.00843 μg/cm^2, the “Cumulative amount comparison of PPD vs derivatives (times less than PPD)” value is 640, the “Permeated through skin into receptor” value was <0.001 % of applied compound dose and the “Recovered in donor compartment” value is 95.0 % of applied compound dose. Moreover, in data set [2], the Recovered in skin is recorded as 0.06 % of applied compound dose; the “Recovered in skin outside diffusion area” value is listed as 0.0018 % of applied compound dose; the “Recovered in skin swabs” value was 0.02 % of applied compound dose; the “Recovered on parafilm and in washes” value is listed as 0.004 % of applied compound dose. Also, the recovery at 8 h, 1 % w/v in data set [2] is 95.1 ± 1.3%.
